Results reported in patent US20190002492A1, “DERIVATIVES OF ALLOPR[…] OF EPIALLOPR[…] USES THEREOF FOR TREATING A NEUROPATHOLOGICAL CONDITION” (UNIVERSITE DE STRASBOURG, priority 2011, published 2019).

Legend:
[1] = test system: SH-SY5Y human neuroblastomas; assay: MTT assay of cell viability and density: effect on cell proliferation; type: cell-based; design: key to Effect on cell proliferation (neural proliferative effect): −: no effect; +: low effect; ++: high effect; +++: very high effect; conditions: SH-SY5Y cultures
Experimental: (§1) The cellular model used to carry out the in vitro experiments is a line of human neuroblastomas called line SH-SY5Y.
(§2) The human neuroblastoma is a cultivated at 37° C. in a humidity saturated atmosphere, under 5% CO2 in a culture medium formed by DMEM with an added 10% (v/v) fetal calf serum, 5% (v/v) horse serum, 2 mM glutamax and 1% (v/v) of the penicillin/streptomycin mixture.
The cellular viability and the density (or number of SH-SY5Y cells/cm^2) were determined using the MTT reduction assay. The MTT technique is a colorimetric test that measures the reduction of the tetrazolium salt (3-[4,5-dimethylthiazol-2-yl]-2,5-diphenyl tetrazolium bromide) in formazan by the succinate dehydrogenase present in the mitochondria of the living cells. The formazan forms blue crystals. Thus, after solubilization of the crystals, the measurement of the absorbance at 595 nm makes it possible to obtain absorbency values directly proportional to the number of viable cells and the cell density in the culture boxes.
The effects of derivatives BR053, BR338, BR297 and BR351 on cell proliferation were evaluated by comparing the number of viable cells and the cell density in the control culture boxes, treated only with the culture medium described in paragraph A1 above, and the culture boxes exposed to the culture medium with the added BR053, BR338, BR297 or BR351 derivatives.

[2] = test system: SH-SY5Y human neuroblastomas; assay: Neuroprotection against cell death caused by oxidizing stress (H2O2), MTT readout; type: cell-based; design: key to Neuroprotective effect against cell death caused by oxidizing stress: −: no effect; +: low effect; ++: high effect; +++: very high effect; conditions: H2O2 1 mM; for Neuroprotective effect against cell death caused by oxidizing stress: SH-SY5Y cultures, 24 or 48 hours, MTT; for Protection of human neuroblastomas from cell death caused by H2O2 (in words): SH-SY5Y
Experimental: as §1, §2
The human neuroblastomas were incubated with the culture medium alone or containing the chief inducing agent of oxidizing stress, hydrogen peroxide (H2O2), at various concentrations in order to determine the concentrations of H2O2 and the incubation times causing the death of a significant percentage of the cells. The neuroprotective properties of the BR053, BR338, BR297 and BR351 derivatives were determined by pretreating the SH-SY5Y cells with the culture medium alone or respectively containing the BR053, BR338, BR297 or BR351 derivative. After pretreatment, each of these categories of cells was integrated for 24 hours or 48 hours with the following solutions: (i) culture medium; (ii) culture medium containing only the BR053, BR338, BR297 or BR351 derivative; (iii) culture medium containing only H2O2 at a concentration of 1 mM, which causes a high percentage of cell death; (iv) culture medium containing both H2O2 (1 mM) and one of the BR053, BR338, BR297 or BR351 derivatives.
10 μl of a stock solution of tetrazolium, abbreviated MTT, at 3.6 mM was added in each well and the incubation continued in darkness for 5 h at 37° C. After cell lysis, spectrophotometer measurements at 595 nm were carried out to determine the survival and cell density under each of the conditions described above.

Row | SMILES | Effect on cell proliferation (neural proliferative effect) [1] | Effect on the proliferation of human neuroblastomas (in words) [1] | Neuroprotective effect against cell death caused by oxidizing stress [2] | Protection of human neuroblastomas from cell death caused by H2O2 (in words) [2]
1 | CC(=O)[C@H]1CCC2C3CC[C@H]4C[C@@H](O)CC[C@]4(C)C3CC(=O)[C@@]21C (some centres unmarked) [BR053] | + | low effectiveness | +++ | capable of protecting human neuroblastomas from the cell death
2 | C=CCO[C@H]1CC[C@]2(C)C3CC[C@@]4(C)C(CC[C@@H]4C(C)=O)C3CC[C@H]2C1 (some centres unmarked) [BR297] | − | no effect | ++ | capable of protecting human neuroblastomas from the cell death
